Assay results: article PMC7948503, “Optimization of a peptide ligand for the adhesion GPCR ADGRG2 provides a potent tool to explore receptor biology” (The Journal of Biological Chemistry, 2020)
Non-standard residues stand in square brackets, D forms with d. Residues, ends and D or L forms follow the SMILES beside them. Primed or numbered codes have the meaning given here. No end group written: not given here. *: point of attachment. FITC = O=C1OC2(c3ccc(O)cc3Oc3cc(O)ccc32)c2ccc(NC(=S)*)cc21; Phe(4-Me) = Cc1ccc(C[C@H](N)C(=O)O)cc1; FITC′ = not defined here

Legend:
Rluc-ADGRG2-ΔGPS-β I663A = biological target: T1, Rluc-ADGRG2-ΔGPS-β I663A (Mus musculus, UniProt Q8CJ12, I677A); assay: BRET binding of FITC-VPM-p15; details: mutant I663A
T1 construct: the entire ECD (including the entire GPS motif) was removed (ADGRG2-ΔGPS-β); expressed in transfected cells; host or cells: HEK293
Experimental: (§1) The binding capacities of ADGRG2 WT or its mutants for VPM-p15 were determined by BRET assay, which has been used in previous studies ([27], [28], [29]). We fused the N terminus of ADGRG2 with a Rluc fragment and coupled FITC to the C terminus of VPM-p15 to facilitate BRET measurement. We stimulated the HEK293 cells transfected with Rluc-ADGRG2-ΔGPS-β wildtype (WT) or mutants by increasing the concentration of FITC-conjugated VPM-p15, and their binding abilities were determined by fitting the data with the saturation curves.
(§2) In the detection of binding capacities of ADGRG2 WT or its mutants for VPM-p15, HEK293 cells were transfected with Rluc-ADGRG2-ΔGPS-β or mutants. Transfected cells were stimulated by increasing the concentration of FITC-conjugated VPM-p15. Binding capacities were determined by BRET, EC50 values of ADGRG2 WT and its mutants for binding VPM-p15 were calculated by GraphPad, and data were normalized by EC50 of WT.

Rluc-ADGRG2-ΔGPS-β I730A = biological target: T2, Rluc-ADGRG2-ΔGPS-β I730A (Mus musculus, UniProt Q8CJ12, I744A); assay: BRET binding of FITC-VPM-p15; details: mutant I730A
T2 construct: the entire ECD (including the entire GPS motif) was removed (ADGRG2-ΔGPS-β); expressed in transfected cells; host or cells: HEK293
Experimental: as §1, §2

Rluc-ADGRG2-ΔGPS-β L683A = biological target: T3, Rluc-ADGRG2-ΔGPS-β L683A (Mus musculus, UniProt Q8CJ12, L697A); assay: BRET binding of FITC-VPM-p15; details: mutant L683A
T3 construct: the entire ECD (including the entire GPS motif) was removed (ADGRG2-ΔGPS-β); expressed in transfected cells; host or cells: HEK293
Experimental: as §1, §2

Rluc-ADGRG2-ΔGPS-β M839A [1] = biological target: T4, Rluc-ADGRG2-ΔGPS-β M839A (Mus musculus, UniProt Q8CJ12, M853A); assay: BRET binding of FITC-VPM-p15; details: mutant M839A
T4 construct: expressed in transfected cells; host or cells: HEK293
Experimental: as §1, §2

Rluc-ADGRG2-ΔGPS-β N667A = biological target: T5, Rluc-ADGRG2-ΔGPS-β N667A (Mus musculus, UniProt Q8CJ12, N681A); assay: BRET binding of FITC-VPM-p15; details: mutant N667A
T5 construct: the entire ECD (including the entire GPS motif) was removed (ADGRG2-ΔGPS-β); expressed in transfected cells; host or cells: HEK293
Experimental: as §1, §2

Rluc-ADGRG2-ΔGPS-β N759A = biological target: T6, Rluc-ADGRG2-ΔGPS-β N759A (Mus musculus, UniProt Q8CJ12, N773A); assay: BRET binding of FITC-VPM-p15; details: mutant N759A
T6 construct: the entire ECD (including the entire GPS motif) was removed (ADGRG2-ΔGPS-β); expressed in transfected cells; host or cells: HEK293
Experimental: as §1, §2

Rluc-ADGRG2-ΔGPS-β Y666A = biological target: T7, Rluc-ADGRG2-ΔGPS-β Y666A (Mus musculus, UniProt Q8CJ12, Y680A); assay: BRET binding of FITC-VPM-p15; details: mutant Y666A
T7 construct: the entire ECD (including the entire GPS motif) was removed (ADGRG2-ΔGPS-β); expressed in transfected cells; host or cells: HEK293
Experimental: as §1, §2

Rluc-ADGRG2-ΔGPS-β F671A = biological target: T8, Rluc-ADGRG2-ΔGPS-β F671A (mouse, UniProt Q8CJ12-3 38-995, F671A); assay: FRET or BRET; HEK293 cells transfected with Rluc-ADGRG2-ΔGPS-β WT or mutants, stimulated by increasing concentrations of FITC-conjugated VPM-p15; saturation curves fitted with GraphPad; each experiment repeated 6 times; details: one partner purified
T8 construct: ADGRG2 (GPR64), mouse, ADGRG2-ΔGPS-β: the entire ECD removed; source: HEK293, transfected, on cells; not shown: Rluc, N-terminal, kept

Rluc-ADGRG2-ΔGPS-β L679A = biological target: T9, Rluc-ADGRG2-ΔGPS-β L679A (mouse, UniProt Q8CJ12-3 38-995, L679A); assay: as above; details: one partner purified
T9 construct: ADGRG2 (GPR64), mouse, ADGRG2-ΔGPS-β: the entire ECD removed; source: HEK293, transfected, on cells; not shown: Rluc, N-terminal, kept

Rluc-ADGRG2-ΔGPS-β V731A = biological target: T10, Rluc-ADGRG2-ΔGPS-β V731A (mouse, UniProt Q8CJ12-3 38-995, V731A); assay: as above; details: one partner purified
T10 construct: ADGRG2 (GPR64), mouse, ADGRG2-ΔGPS-β: the entire ECD removed; source: HEK293, transfected, on cells; not shown: Rluc, N-terminal, kept

Rluc-ADGRG2-ΔGPS-β V834A = biological target: T11, Rluc-ADGRG2-ΔGPS-β V834A (mouse, UniProt Q8CJ12-3 38-995, V834A); assay: as above; details: one partner purified
T11 construct: ADGRG2 (GPR64), mouse, ADGRG2-ΔGPS-β: the entire ECD removed; source: HEK293, transfected, on cells; not shown: Rluc, N-terminal, kept

Rluc-ADGRG2-ΔGPS-β V836A = biological target: T12, Rluc-ADGRG2-ΔGPS-β V836A (mouse, UniProt Q8CJ12-3 38-995, V836A); assay: as above; details: one partner purified
T12 construct: ADGRG2 (GPR64), mouse, ADGRG2-ΔGPS-β: the entire ECD removed; source: HEK293, transfected, on cells; not shown: Rluc, N-terminal, kept

Rluc-ADGRG2-ΔGPS-β M839A [2] = biological target: T13, Rluc-ADGRG2-ΔGPS-β M839A (mouse, UniProt Q8CJ12-3 38-995, M839A); assay: as above; details: one partner purified
T13 construct: ADGRG2 (GPR64), mouse, ADGRG2-ΔGPS-β: the entire ECD removed; source: HEK293, transfected, on cells; not shown: Rluc, N-terminal, kept

Rluc-ADGRG2-ΔGPS-β S661A = biological target: T14, Rluc-ADGRG2-ΔGPS-β S661A (mouse, UniProt Q8CJ12-3 38-995, S661A); assay: as above; details: one partner purified
T14 construct: ADGRG2 (GPR64), mouse, ADGRG2-ΔGPS-β: the entire ECD removed; source: HEK293, transfected, on cells; not shown: Rluc, N-terminal, kept

Rluc-ADGRG2-ΔGPS-β W662A = biological target: T15, Rluc-ADGRG2-ΔGPS-β W662A (mouse, UniProt Q8CJ12-3 38-995, W662A); assay: as above; details: one partner purified
T15 construct: ADGRG2 (GPR64), mouse, ADGRG2-ΔGPS-β: the entire ECD removed; source: HEK293, transfected, on cells; not shown: Rluc, N-terminal, kept

[3] = Kd(mutated ADGRG2-ΔGPS-β)/Kd(WT)

T6 sequence (Q8CJ12 618-1009 N773A limits assumed): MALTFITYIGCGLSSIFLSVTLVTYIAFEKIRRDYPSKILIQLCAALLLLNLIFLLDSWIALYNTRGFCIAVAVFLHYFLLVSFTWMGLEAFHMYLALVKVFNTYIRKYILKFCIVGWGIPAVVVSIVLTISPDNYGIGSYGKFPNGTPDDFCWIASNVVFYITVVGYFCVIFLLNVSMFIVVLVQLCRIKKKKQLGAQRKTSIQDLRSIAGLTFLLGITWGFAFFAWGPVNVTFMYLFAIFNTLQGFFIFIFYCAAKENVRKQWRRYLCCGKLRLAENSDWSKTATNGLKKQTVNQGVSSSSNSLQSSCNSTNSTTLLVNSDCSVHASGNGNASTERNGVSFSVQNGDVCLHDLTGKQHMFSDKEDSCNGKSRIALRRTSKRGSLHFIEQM
T4 sequence (Q8CJ12 614-1009 M853A): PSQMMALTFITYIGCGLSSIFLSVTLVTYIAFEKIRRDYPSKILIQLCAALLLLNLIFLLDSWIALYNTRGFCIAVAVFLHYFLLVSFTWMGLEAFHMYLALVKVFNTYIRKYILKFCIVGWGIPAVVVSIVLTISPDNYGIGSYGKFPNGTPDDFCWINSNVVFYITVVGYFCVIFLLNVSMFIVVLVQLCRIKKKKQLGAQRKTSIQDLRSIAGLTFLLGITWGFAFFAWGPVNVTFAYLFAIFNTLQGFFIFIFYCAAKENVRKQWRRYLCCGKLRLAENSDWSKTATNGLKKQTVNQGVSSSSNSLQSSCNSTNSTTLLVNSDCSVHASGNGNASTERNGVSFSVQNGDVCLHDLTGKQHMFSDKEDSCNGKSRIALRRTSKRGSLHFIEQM
T5 sequence (Q8CJ12 618-1009 N681A limits assumed): as the sequence (Q8CJ12 618-1009 N773A limits assumed) above, with N64A, A156N counted along it
T1 sequence (Q8CJ12 618-1009 I677A limits assumed): as the sequence (Q8CJ12 618-1009 N773A limits assumed) above, with I60A, A156N counted along it
T3 sequence (Q8CJ12 618-1009 L697A limits assumed): as the sequence (Q8CJ12 618-1009 N773A limits assumed) above, with L80A, A156N counted along it
T2 sequence (Q8CJ12 618-1009 I744A limits assumed): as the sequence (Q8CJ12 618-1009 N773A limits assumed) above, with I127A, A156N counted along it
T7 sequence (Q8CJ12 618-1009 Y680A limits assumed): as the sequence (Q8CJ12 618-1009 N773A limits assumed) above, with Y63A, A156N counted along it
T14 sequence (Q8CJ12 other isoform, or with tags, fused parts or gaps S661A | S661A | S661A S661A): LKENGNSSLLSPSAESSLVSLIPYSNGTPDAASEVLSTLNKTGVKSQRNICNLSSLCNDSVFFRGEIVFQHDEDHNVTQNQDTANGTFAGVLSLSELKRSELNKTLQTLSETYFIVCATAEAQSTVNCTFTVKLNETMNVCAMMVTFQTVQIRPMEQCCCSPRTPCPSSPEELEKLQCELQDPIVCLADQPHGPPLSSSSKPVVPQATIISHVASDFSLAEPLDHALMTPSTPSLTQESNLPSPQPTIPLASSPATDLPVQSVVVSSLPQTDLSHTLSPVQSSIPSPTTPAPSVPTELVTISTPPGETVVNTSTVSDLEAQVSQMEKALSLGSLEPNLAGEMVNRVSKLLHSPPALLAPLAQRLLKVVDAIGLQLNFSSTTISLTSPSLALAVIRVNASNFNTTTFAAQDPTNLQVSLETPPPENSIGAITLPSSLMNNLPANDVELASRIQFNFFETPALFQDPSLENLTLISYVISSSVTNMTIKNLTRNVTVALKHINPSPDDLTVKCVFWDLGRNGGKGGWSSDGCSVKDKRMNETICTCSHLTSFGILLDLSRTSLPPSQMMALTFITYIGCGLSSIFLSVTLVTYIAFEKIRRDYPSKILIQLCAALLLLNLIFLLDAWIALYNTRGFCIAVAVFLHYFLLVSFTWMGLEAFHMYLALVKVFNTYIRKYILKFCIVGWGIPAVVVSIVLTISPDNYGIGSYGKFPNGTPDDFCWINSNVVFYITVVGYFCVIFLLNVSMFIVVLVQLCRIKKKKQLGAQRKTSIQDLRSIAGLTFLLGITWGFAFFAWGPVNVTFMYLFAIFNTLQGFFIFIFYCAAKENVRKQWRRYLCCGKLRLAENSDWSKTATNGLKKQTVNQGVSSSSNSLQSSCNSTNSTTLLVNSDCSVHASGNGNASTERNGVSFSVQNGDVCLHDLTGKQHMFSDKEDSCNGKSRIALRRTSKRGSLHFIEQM
T15 sequence (Q8CJ12 other isoform, or with tags, fused parts or gaps W662A | W662A | W662A W662A): as the sequence (Q8CJ12 other isoform, or with tags, fused parts or gaps S661A | S661A | S661A S661A) above, with A624S, W625A counted along it
T12 sequence (Q8CJ12 other isoform, or with tags, fused parts or gaps V836A | V836A | V836A V836A): as the sequence (Q8CJ12 other isoform, or with tags, fused parts or gaps S661A | S661A | S661A S661A) above, with A624S, V799A counted along it
T11 sequence (Q8CJ12 other isoform, or with tags, fused parts or gaps V834A | V834A | V834A V834A): as the sequence (Q8CJ12 other isoform, or with tags, fused parts or gaps S661A | S661A | S661A S661A) above, with A624S, V797A counted along it
T10 sequence (Q8CJ12 other isoform, or with tags, fused parts or gaps V731A | V731A | V731A V731A): as the sequence (Q8CJ12 other isoform, or with tags, fused parts or gaps S661A | S661A | S661A S661A) above, with A624S, V694A counted along it
T13 sequence (Q8CJ12 other isoform, or with tags, fused parts or gaps M839A | M839A | M839A M839A): as the sequence (Q8CJ12 other isoform, or with tags, fused parts or gaps S661A | S661A | S661A S661A) above, with A624S, M802A counted along it
T8 sequence (Q8CJ12 other isoform, or with tags, fused parts or gaps F671A | F671A | F671A F671A): as the sequence (Q8CJ12 other isoform, or with tags, fused parts or gaps S661A | S661A | S661A S661A) above, with A624S, F634A counted along it
T9 sequence (Q8CJ12 other isoform, or with tags, fused parts or gaps L679A | L679A | L679A L679A): as the sequence (Q8CJ12 other isoform, or with tags, fused parts or gaps S661A | S661A | S661A S661A) above, with A624S, L642A counted along it

`CC[C@H](C)[C@H](NC(=O)CNC(=O)[C@H](Cc1ccc(C)cc1)NC(=O)[C@H](CO)NC(=O)[C@@H](N)C(C)C)C(=O)N[C@@H](CC(C)C)C(=O)N[C@@H](CC(C)C)C(=O)N[C@@H](CC(=O)O)C(=O)N[C@@H](CC(C)C)C(=O)N[C@@H](CO)C(=O)N[C@@H](CCCNC(=N)N)C(=O)N[C@H](C(=O)N[C@@H](CO)C(=O)N[C@@H](CC(C)C)C(=O)N1CCC[C@H]1C(=O)N[C@@H](CCCCNC(=S)Nc1ccc2c(c1)C(=O)OC21c2ccc(O)cc2Oc2cc(O)ccc21)C(=O)O)[C@@H](C)O` [FITC-VPM-p15] (H-VS[Phe(4-Me)]GILLDLSRTSLPK(FITC)-OH; N-terminus and C-terminus assumed) showed a Fmut (Rluc-ADGRG2-ΔGPS-β I663A; [3]) of 0.825, a Bmax (Rluc-ADGRG2-ΔGPS-β I663A; binding Bmax (BRET)) of 0.814±0.043 and a Fmut (Rluc-ADGRG2-ΔGPS-β I730A; [3]) of 1.281. For the same molecule, the Bmax (Rluc-ADGRG2-ΔGPS-β I730A; binding Bmax (BRET)) was 0.7950±0.031, the Fmut (Rluc-ADGRG2-ΔGPS-β L683A; [3]) was 1.240 and the Bmax (Rluc-ADGRG2-ΔGPS-β L683A; binding Bmax (BRET)) was 0.7887±0.022. It also gave a Fmut (Rluc-ADGRG2-ΔGPS-β M839A [1]; [3]) of 0.957, a Bmax (Rluc-ADGRG2-ΔGPS-β M839A [1]; binding Bmax (BRET)) of 0.764±0.008 and a Fmut (Rluc-ADGRG2-ΔGPS-β N667A; [3]) of 0.975. The Bmax (Rluc-ADGRG2-ΔGPS-β N667A; binding Bmax (BRET)) was 0.803±0.028, the Fmut (Rluc-ADGRG2-ΔGPS-β N759A; [3]) was 1.655 and the Bmax (Rluc-ADGRG2-ΔGPS-β N759A; binding Bmax (BRET)) was 0.713±0.011. For the same molecule, the Fmut (Rluc-ADGRG2-ΔGPS-β Y666A; [3]) was 0.895 and the Bmax (Rluc-ADGRG2-ΔGPS-β Y666A; binding Bmax (BRET)) was 0.809±0.029.

B1: FITC-conjugated VPM-p15 (ADGRG2 Stachel peptide p15 T1V/F3Phe(4-Me)) (peptide)
chain: VS[Phe(4-Me)]GILLDLSRTSLP-{FITC′}
In the case of B1, the EC50 (Rluc-ADGRG2-ΔGPS-β F671A) is reported as 880 nM, the EC50 (Rluc-ADGRG2-ΔGPS-β L679A) is reported as 1160 nM and the EC50 (Rluc-ADGRG2-ΔGPS-β V731A) is reported as 838 nM. The EC50 (Rluc-ADGRG2-ΔGPS-β V834A) was 1120 nM, the EC50 (Rluc-ADGRG2-ΔGPS-β V836A) was 1230 nM and the EC50 (Rluc-ADGRG2-ΔGPS-β M839A [2]) was 896 nM. It also gave an EC50 (Rluc-ADGRG2-ΔGPS-β S661A) of 778 nM and an EC50 (Rluc-ADGRG2-ΔGPS-β W662A) of 1060 nM.
